# Key:
# BRAF(V600E) = BRAF(V600E) (Homo sapiens, UniProt P15056, V600E); assay: LanthaScreen assay, side by side IC50 comparison; type: biochemical; conditions: LanthaScreen assay, side by side comparison
# Method: To test both our binding mode hypothesis and to see if these structural differences could be taken exploited to impart selectivity and potency improvements, I-13, in which the lipophilic 2-trifluoromethy substituent on imidazole ring of inhibitor KIN-035, was replaced by the polar 2-methylsulfonyl substitutent. […] To address this issue, real time kinetic experiments were performed.
# DCAMKL1 = target: T1, DCAMKL1 (Homo sapiens, UniProt O15075); conditions: 1 μM, duplicate, without preincubation; cited from earlier work
# T1 construct: literature Ambit Biosciences
# T1 sequence (O15075 1-740): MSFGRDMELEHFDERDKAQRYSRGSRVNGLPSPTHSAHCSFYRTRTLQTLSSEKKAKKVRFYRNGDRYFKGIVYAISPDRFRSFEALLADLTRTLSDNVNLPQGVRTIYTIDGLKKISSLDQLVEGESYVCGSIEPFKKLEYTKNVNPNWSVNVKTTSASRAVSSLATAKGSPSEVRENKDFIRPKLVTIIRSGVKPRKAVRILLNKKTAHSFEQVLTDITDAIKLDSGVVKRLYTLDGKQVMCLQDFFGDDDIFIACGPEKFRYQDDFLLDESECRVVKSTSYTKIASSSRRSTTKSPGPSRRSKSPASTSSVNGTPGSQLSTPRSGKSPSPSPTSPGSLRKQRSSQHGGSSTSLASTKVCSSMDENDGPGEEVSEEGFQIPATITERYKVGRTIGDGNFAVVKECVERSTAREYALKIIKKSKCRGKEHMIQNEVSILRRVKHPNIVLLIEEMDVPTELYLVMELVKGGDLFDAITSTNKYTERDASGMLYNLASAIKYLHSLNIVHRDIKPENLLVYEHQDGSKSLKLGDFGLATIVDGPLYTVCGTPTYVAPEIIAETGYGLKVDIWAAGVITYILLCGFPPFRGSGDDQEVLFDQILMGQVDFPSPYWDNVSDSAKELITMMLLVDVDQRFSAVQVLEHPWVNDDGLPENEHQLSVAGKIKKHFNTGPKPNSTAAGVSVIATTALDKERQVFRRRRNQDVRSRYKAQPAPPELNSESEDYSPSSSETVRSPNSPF
# VEGFR2 = target: T2, VEGFR2 (Homo sapiens, UniProt P35968); conditions: 1 μM, duplicate, without preincubation; cited from earlier work
# T2 construct: literature Ambit Biosciences
# ERBB4 = target: T3, ERBB4 (Homo sapiens, UniProt Q15303); conditions: 1 μM, duplicate, without preincubation; cited from earlier work
# T3 construct: literature Ambit Biosciences
# EGFR = target: T4, EGFR (Homo sapiens, UniProt P00533); conditions: 1 μM, duplicate, without preincubation; cited from earlier work
# T4 construct: literature Ambit Biosciences
# MKNK2 = target: T5, MKNK2 (Homo sapiens, UniProt Q9HBH9); conditions: 1 μM, duplicate, without preincubation; cited from earlier work
# T5 construct: literature Ambit Biosciences
# EPHA2 = EPHA2 (Homo sapiens, UniProt P29317); design: literature Ambit Biosciences; conditions: 1 μM, duplicate, without preincubation; cited from earlier work
# RAF1 = target: T6, RAF1 (Homo sapiens, UniProt P04049); conditions: 1 μM, duplicate, without preincubation; cited from earlier work
# T6 construct: literature Ambit Biosciences
# T6 sequence (P04049 whole entry): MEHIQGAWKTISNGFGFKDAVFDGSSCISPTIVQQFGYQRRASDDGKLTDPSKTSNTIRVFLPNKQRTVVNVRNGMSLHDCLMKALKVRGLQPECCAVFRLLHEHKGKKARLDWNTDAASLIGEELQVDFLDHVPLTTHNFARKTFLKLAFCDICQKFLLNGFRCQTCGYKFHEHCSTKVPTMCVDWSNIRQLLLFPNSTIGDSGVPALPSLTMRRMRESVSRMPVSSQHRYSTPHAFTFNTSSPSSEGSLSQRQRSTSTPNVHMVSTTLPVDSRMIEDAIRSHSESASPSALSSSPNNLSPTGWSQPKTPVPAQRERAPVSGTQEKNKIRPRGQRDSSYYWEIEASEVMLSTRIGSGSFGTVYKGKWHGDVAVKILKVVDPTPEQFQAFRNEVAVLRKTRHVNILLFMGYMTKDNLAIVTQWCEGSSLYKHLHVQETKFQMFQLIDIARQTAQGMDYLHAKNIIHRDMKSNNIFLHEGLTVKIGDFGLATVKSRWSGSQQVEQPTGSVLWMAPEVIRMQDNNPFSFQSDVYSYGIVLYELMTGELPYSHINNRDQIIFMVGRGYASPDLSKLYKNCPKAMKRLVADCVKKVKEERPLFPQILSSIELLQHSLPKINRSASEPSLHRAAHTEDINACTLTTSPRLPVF
# CDK3 = target: T7, CDK3 (Homo sapiens, UniProt Q00526); conditions: 1 μM, duplicate, without preincubation; cited from earlier work
# T7 construct: literature Ambit Biosciences
# T7 sequence (Q00526 whole entry): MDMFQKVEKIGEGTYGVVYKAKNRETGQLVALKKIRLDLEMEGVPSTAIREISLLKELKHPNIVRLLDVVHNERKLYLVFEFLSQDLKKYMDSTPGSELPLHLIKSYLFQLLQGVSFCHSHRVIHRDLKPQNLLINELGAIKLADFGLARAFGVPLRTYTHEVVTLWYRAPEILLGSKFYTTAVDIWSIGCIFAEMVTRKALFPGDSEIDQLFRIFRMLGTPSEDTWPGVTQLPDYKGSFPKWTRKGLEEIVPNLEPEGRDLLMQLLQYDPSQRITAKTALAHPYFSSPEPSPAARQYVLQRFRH
# BMPR2 = target: T8, BMPR2 (Homo sapiens, UniProt Q13873); conditions: 1 μM, duplicate, without preincubation; cited from earlier work
# T8 construct: literature Ambit Biosciences
# T8 sequence (Q13873 27-1038): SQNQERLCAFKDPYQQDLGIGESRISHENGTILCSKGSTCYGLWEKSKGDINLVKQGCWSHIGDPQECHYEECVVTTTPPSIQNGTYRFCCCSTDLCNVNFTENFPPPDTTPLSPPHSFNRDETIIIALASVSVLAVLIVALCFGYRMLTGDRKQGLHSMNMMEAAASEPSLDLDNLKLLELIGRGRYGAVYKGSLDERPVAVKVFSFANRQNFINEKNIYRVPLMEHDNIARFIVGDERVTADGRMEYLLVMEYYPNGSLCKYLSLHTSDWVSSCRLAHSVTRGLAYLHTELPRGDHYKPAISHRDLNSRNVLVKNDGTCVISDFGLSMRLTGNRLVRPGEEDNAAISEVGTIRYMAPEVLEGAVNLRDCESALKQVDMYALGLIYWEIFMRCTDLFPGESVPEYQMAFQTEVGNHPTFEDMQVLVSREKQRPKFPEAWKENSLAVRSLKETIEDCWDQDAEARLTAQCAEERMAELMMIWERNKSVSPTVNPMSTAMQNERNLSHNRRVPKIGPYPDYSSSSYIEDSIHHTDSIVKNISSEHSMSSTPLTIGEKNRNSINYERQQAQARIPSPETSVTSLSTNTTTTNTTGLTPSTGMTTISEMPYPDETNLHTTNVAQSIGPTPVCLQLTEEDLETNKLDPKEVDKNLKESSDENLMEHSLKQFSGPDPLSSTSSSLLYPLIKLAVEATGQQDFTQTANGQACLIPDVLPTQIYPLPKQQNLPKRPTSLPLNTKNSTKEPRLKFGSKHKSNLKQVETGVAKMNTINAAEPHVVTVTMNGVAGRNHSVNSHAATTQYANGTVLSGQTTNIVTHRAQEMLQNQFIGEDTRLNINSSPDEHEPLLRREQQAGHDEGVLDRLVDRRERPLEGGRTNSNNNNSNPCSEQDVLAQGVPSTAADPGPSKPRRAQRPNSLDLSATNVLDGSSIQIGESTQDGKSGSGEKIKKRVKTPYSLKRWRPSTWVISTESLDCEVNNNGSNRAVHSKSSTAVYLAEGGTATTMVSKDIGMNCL
# MER = MER (Homo sapiens, UniProt Q12866); assay: Nanosyn kinase profiling, % inhibition; type: biochemical; conditions: panel of 230 kinases
# Method: (§1) “Inhibiting kinase activity” means to decrease the production of an phosphor-peptide by a particular kinase that can be separated by analytical techniques. For example, a comprehensive platform of kinase, protease, phosphatase and epigenetic assays that utilizes cutting-edge microfluidics and informatics tools to provide accurate and rapid results. Profiling data in this application were determined using these techniques at Nanosyn Inc. IC50 data were provided by Reaction Biology Inc using a P33 radiolabeled kinase assay.
# (§2) More modest activity for Aurora-A, FLT-1/4, KDR, KIT, PDGFRs was accompanied by better activity for B-Raf mutant and wild-type forms, Modest inhibition of MEK-1, BTK, c-Met, RET, and RON was also observed. […] Moreover, the observed inhibition of MEK-1 with 1-12 and TYK2 with I-6 represents additional activities against kinases for which no type-II inhibitors have been reported to date. […] To further evaluate the scope of inhibition, I-6 was evaluated against a larger panel of 230 kinases, Table-22.
# EPH-B2 = EPH-B2 (Homo sapiens, UniProt P29323); assay: Nanosyn kinase profiling, % inhibition; type: biochemical; conditions: panel of 230 kinases
# Method: as §1, §2
# LCK = LCK (Homo sapiens, UniProt P06239); assay: Nanosyn kinase profiling, % inhibition; type: biochemical; conditions: panel of 230 kinases
# Chain of LCK (P06239 whole entry): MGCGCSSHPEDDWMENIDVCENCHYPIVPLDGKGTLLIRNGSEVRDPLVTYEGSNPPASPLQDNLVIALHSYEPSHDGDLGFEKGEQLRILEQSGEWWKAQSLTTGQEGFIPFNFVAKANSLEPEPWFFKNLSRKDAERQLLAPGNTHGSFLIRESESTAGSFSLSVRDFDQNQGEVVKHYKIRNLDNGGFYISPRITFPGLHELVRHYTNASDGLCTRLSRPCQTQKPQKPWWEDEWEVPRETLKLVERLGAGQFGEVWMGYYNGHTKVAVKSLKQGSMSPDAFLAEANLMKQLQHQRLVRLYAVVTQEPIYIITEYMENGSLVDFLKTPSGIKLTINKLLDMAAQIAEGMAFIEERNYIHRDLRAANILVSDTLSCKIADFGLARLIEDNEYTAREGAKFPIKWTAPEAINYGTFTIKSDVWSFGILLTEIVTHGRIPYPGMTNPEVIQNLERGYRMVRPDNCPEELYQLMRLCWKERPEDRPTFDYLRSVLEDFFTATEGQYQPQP
# Method: as §1, §2
# YES = YES (Homo sapiens, UniProt P07947); assay: Nanosyn kinase profiling, % inhibition; type: biochemical; conditions: panel of 230 kinases
# Method: as §1, §2
# TRKA = TRKA (Homo sapiens, UniProt P04629); assay: Nanosyn kinase profiling, % inhibition; type: biochemical; conditions: panel of 230 kinases
# Method: as §1, §2
# LOK = LOK (Homo sapiens, UniProt O94804); assay: Nanosyn kinase profiling, % inhibition; type: biochemical; conditions: panel of 230 kinases
# Method: as §1, §2
# EPH-A8 = EPH-A8 (Homo sapiens, UniProt P29322); assay: Nanosyn kinase profiling, % inhibition; type: biochemical; conditions: panel of 230 kinases
# Method: as §1, §2
# SRMS = SRMS (Homo sapiens, UniProt Q9H3Y6); assay: Nanosyn kinase profiling, % inhibition; type: biochemical; conditions: panel of 230 kinases
# Chain of SRMS (Q9H3Y6 whole entry, species assumed): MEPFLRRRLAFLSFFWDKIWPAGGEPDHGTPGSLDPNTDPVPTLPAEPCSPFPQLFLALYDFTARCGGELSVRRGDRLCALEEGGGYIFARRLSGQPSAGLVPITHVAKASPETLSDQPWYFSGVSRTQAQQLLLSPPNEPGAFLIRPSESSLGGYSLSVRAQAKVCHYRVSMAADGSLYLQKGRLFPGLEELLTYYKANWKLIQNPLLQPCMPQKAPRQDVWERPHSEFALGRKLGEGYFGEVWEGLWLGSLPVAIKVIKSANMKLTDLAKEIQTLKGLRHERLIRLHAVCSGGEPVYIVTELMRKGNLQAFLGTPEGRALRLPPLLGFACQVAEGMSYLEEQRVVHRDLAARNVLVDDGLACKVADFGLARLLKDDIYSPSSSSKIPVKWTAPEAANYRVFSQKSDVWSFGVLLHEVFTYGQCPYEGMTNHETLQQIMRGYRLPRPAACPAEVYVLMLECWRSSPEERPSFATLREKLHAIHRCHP
# Method: as §1, §2
# MKNK1 = target: T9, MKNK1 (Homo sapiens, UniProt Q9BUB5); assay: Nanosyn kinase profiling, % inhibition; type: biochemical; conditions: panel of 230 kinases
# T9 construct: literature Ambit Biosciences
# Method: as §1, §2
# EPH-B4 = EPH-B4 (Homo sapiens, UniProt P54760); assay: Nanosyn kinase profiling, % inhibition; type: biochemical; conditions: panel of 230 kinases
# Method: as §1, §2
# EPH-A3 = EPH-A3 (Homo sapiens, UniProt P29320); assay: Nanosyn kinase profiling, % inhibition; type: biochemical; conditions: panel of 230 kinases
# Chain of EPH-A3 (P29320 21-983): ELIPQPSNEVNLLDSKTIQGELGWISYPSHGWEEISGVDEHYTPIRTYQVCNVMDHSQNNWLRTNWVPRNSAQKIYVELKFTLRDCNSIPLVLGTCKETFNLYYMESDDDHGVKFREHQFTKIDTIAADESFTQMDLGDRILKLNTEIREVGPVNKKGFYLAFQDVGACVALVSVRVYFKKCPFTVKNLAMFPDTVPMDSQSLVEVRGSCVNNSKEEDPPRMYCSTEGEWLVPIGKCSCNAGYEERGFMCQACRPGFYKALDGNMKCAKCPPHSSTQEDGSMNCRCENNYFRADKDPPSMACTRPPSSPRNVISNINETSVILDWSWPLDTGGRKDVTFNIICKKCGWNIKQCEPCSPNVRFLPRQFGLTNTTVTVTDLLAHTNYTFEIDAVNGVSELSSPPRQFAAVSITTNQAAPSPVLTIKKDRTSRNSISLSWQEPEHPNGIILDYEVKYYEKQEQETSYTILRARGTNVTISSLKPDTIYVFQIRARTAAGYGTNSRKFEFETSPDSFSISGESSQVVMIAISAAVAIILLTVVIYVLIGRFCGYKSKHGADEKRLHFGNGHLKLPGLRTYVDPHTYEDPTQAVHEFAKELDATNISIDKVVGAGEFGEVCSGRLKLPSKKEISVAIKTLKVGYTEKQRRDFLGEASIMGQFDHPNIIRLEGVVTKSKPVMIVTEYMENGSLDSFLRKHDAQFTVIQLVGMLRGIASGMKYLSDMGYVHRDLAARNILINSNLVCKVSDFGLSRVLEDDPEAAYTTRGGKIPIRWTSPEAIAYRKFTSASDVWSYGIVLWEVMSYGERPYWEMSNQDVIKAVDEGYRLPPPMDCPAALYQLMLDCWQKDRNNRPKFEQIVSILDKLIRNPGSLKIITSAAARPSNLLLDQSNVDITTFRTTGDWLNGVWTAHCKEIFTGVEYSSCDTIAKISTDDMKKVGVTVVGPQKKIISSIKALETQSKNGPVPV
# Method: as §1, §2
# EPH-A5 = EPH-A5 (Homo sapiens, UniProt P54756); assay: Nanosyn kinase profiling, % inhibition; type: biochemical; conditions: panel of 230 kinases
# Method: as §1, §2
# FER = FER (Homo sapiens, UniProt P16591); assay: Nanosyn kinase profiling, % inhibition; type: biochemical; conditions: panel of 230 kinases
# Method: as §1, §2
# EPH-B1 = EPH-B1 (Homo sapiens, UniProt P54762); assay: Nanosyn kinase profiling, % inhibition; type: biochemical; conditions: panel of 230 kinases
# Method: as §1, §2
# ABL-T315I = ABL-T315I (Homo sapiens, UniProt P00519, T315I); assay: Nanosyn kinase profiling, % inhibition; type: biochemical; conditions: panel of 230 kinases
# Method: as §1, §2
# SPHK2 = SPHK2 (Homo sapiens, UniProt Q9NRA0); assay: Nanosyn kinase profiling, % inhibition; type: biochemical; conditions: panel of 230 kinases
# Method: as §1, §2
# Chain of BRAF(V600E) (P15056 whole entry V600E): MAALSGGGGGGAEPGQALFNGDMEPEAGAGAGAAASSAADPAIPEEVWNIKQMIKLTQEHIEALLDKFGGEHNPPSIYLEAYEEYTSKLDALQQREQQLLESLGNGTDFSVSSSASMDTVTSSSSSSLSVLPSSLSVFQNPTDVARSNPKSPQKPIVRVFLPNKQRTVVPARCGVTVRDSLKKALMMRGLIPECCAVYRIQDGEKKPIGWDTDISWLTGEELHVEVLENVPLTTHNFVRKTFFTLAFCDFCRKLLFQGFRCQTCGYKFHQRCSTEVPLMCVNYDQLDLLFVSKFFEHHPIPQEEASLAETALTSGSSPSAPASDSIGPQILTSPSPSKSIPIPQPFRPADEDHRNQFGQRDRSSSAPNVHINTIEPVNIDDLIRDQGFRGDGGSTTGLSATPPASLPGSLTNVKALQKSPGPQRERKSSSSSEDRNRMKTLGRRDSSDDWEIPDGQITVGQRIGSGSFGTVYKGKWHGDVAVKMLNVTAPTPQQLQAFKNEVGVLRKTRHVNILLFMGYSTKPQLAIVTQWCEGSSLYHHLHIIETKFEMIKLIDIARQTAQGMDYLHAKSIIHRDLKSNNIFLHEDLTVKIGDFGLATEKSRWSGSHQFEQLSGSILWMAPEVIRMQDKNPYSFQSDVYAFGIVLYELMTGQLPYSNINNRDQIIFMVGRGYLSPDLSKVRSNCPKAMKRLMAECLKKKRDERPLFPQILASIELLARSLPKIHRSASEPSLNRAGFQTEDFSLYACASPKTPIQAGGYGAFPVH
smiles,measurement,setting,value
Cc1ccc(NC(=O)c2[nH]c(C(F)(F)F)nc2-c2ccc(F)cc2)cc1Nc1ccc2ncn(C)c(=O)c2c1 [KIN-035],IC50,BRAF(V600E),67 nM
same,inhibition of DCAMKL1,DCAMKL1,X (X > 25% @ 1 μM)
same,inhibition of VEGFR2,VEGFR2,X (X > 25% @ 1 μM)
same,inhibition of ERBB4,ERBB4,X (X > 25% @ 1 μM)
same,inhibition of EGFR,EGFR,X (X > 25% @ 1 μM)
same,inhibition of MKNK2,MKNK2,X (X > 25% @ 1 μM)
same,inhibition of EPHA2,EPHA2,XX (XX > 50% @ 1 μM)
same,inhibition of RAF1,RAF1,XXXX (XXXX > 90% @ 1 μM)
Cc1ccc(-c2nc(C(F)(F)F)[nH]c2C(=O)Nc2ccc(C)c(Nc3ccc4ncn(C)c(=O)c4c3)c2)cc1F [KIN-038],inhibition of DCAMKL1,DCAMKL1,X (X > 25% @ 1 μM)
same,inhibition of CDK3,CDK3,X (X > 25% @ 1 μM)
same,inhibition of BMPR2,BMPR2,X (X > 25% @ 1 μM)
same,inhibition of RAF1,RAF1,XXXX (XXXX > 90% @ 1 μM)
"CNC(=O)c1cc(Oc2ccc(NC(=O)c3nc(C(F)(F)F)[nH]c3-c3ccc(F)cc3)cc2)ccn1 [Inhibitor I-6, 4-(4-{[5-(4-Fluoro-phenyl)-2-trifluoromethyl-3H-imidazole-4-carbonyl]-amino}-phenoxy)-pyridine-2-carboxylic acid methylamide]",inhibition at 5 µM,MER,≥ 50%
same,inhibition at 5 µM,EPH-B2,≥ 50%
same,inhibition at 5 µM,LCK,≥ 50%
same,inhibition at 5 µM,YES,≥ 50%
same,inhibition at 5 µM,TRKA,≥ 50%
same,inhibition at 5 µM,LOK,≥ 50%
same,inhibition at 5 µM,EPH-A8,≥ 50%
same,inhibition at 5 µM,SRMS,≥ 50%
same,inhibition at 5 µM,MKNK1,≥ 50%
same,inhibition at 5 µM,EPH-B4,≥ 50%
same,inhibition at 5 µM,EPH-A3,≥ 50%
same,inhibition at 5 µM,EPH-A5,≥ 50%
same,inhibition at 5 µM,FER,≥ 50%
same,inhibition at 5 µM,EPH-B1,≥ 50%
same,inhibition at 5 µM,ABL-T315I,≥ 50%
same,inhibition at 5 µM,SPHK2,≥ 50%

# Reference: patent publication US9833455B2, “Preparation and methods of use for ortho-aryl 5-membered heteroaryl-carboxamide containing multi-targeted kinase inhibitors” (Spacefill Enterprises LLC, priority 2011, dated 2017)
